Test results published in patent publication US20260166033A1, “USE OF A FGFR3 TYROSINE KINASE INHIBITOR FOR THE TREATMENT OF FGFR-RELATED BONE REPAIR AND BONE FORMATION IMPAIRMENTS” (INSTITUT NATIONAL DE LA SANTÉ ET DE LA RECHERCHE MÉDICALE, priority 2021, published 2026).

Tests used:
HCH mice (Fgfr3^N534K/+) = experiment: Non-stabilized mandibular fracture bone repair in the HCH mouse model, microCT scans and repair grade; format: in vivo
Procedure: Mandibular bone repair was studied in the HCH mouse model (Fgfr3^N534K/+). The experiments were performed in adult animals at 6 weeks of age, and mice were euthanized at 4 key points: during bone repair (10, 14, 21 days post fracture), and at the end of the normal bone healing process i.e. at 28 days post fracture.
Vertical mandibular fractures were performed in the ascending ramus region in Fgfr3^N534K/+ and Fgfr3^+/+ mice. This is a non-stabilized mandibular fracture protocol allowing to analyze the endochondral bone repair process.
Four batches (n=100) of Fgfr3^N534K/+ and Fgfr3^+/+ mandible fractures corresponding to different key stages of repair were studied (day 10, day 14, day 21, day 28). Using collagen type II (proliferative cartilage), type X (hypertrophic cartilage) and type I (bone) immunolabelling, we observed that the endochondral process is disturbed, we noted a delayed cartilage resorption, a reduction in the size of hypertrophic chondrocytes area and a defect in bone formation within the repair callus in Fgfr3^N534K/+ compared to Fgfr3^+/+. […] We observed the presence of pseudarthrosis (fibrosis in the callus) in Fgfr3^N534K/+ mice whereas we observed 100% of bone in Fgfr3^+/+ callus. Considering the quality of the newly formed bone at day 28, we defined four grades of repair and classified the mice according to their repair grade (from 1 to 4). The defective repair is significant in Fgfr3^N534K/+ compared to Fgfr3^+/+ (FIG. 1C).
HCH mice (Fgfr3^N534K/+) were treated with infigratinib (subcutaneous injections at 4 mg/kg, 3 times per week) from day 0 (facture of the mandible) to day 14 or day 28. The bone repair analyses were evaluated by microCT scans at day 14 and day 28 post fracture (FIGS. 1A and 1B). We quantified BV/TV (Bone Volume/Total Volume) and Callus volume (ratio TV (total volume) of the callus/TV of the contralateral ascending ramus region).

[1] = tested on: mouse model of ACH (Fgfr3Y367C/+); conditions: Fgfr3Y367C/+ mice; Komla Ebri et al 2016, Biosse Duplan et al 2016; cited from earlier work
[2] = day 28 grade repair, treated Fgfr3^N534K/+ mice

CCN1CCN(c2ccc(Nc3cc(N(C)C(=O)Nc4c(Cl)c(OC)cc(OC)c4Cl)ncn3)cc2)CC1 [BGJ398, 3-(2,6-dichloro-3,5-dimethoxyphenyl)-1-[6-[4-(4-ethylpiperazin-1-yl)anilino]pyrimidin-4-yl]-1-methylurea]
Effect on defective bone reparation of the callus (summary in words) (HCH mice (Fgfr3^N534K/+); HCH mandible, non-stabilized fracture): partially restore the defective bone reparation of the callus, increases the bone volume/total volume without pseudarthrosis
Callus volume (ratio TV of the callus/TV of the contralateral ascending ramus region), treated vs untreated HCH mice (HCH mice (Fgfr3^N534K/+); day 14 post fracture, subcutaneous 4 mg/kg, 3 times per week from day 0, microCT): unchanged
BV/TV (Bone Volume/Total Volume), change in treated vs untreated HCH mice (HCH mice (Fgfr3^N534K/+); day 14 post fracture, subcutaneous 4 mg/kg, 3 times per week from day 0, microCT, p<0.05): +20.8%
Complete bone healing (grade 1), mice with this repair grade (HCH mice (Fgfr3^N534K/+); [2]): 7/10
Restoration of bone continuity, but presence of mild bone defects (grade 2), mice with this repair grade (HCH mice (Fgfr3^N534K/+); [2]): 3/10
Callus volume, change in treated vs untreated HCH mice (HCH mice (Fgfr3^N534K/+); day 28 post fracture, subcutaneous 4 mg/kg, 3 times per week from day 0, microCT, p<0.0001): −38.6%
BV/TV (Bone Volume/Total Volume), change in treated vs untreated HCH mice (HCH mice (Fgfr3^N534K/+); day 28 post fracture, subcutaneous 4 mg/kg, 3 times per week from day 0, microCT, p<0.01): +17.8%
Effect on affected skeletal elements (long bones, vertebrae, intervertebral discs, craniofacial morphology, foramen magnum) [1]: improvement of many of the affected skeletal elements in ACH
